Measured values published in patent US8217071B2, “Use of inhibitors of the degradation of p27, in particular Argyrin and derivatives thereof, for the treatment of proliferative diseases” (Helmholtz Zentrum für Infektionsforschung GmbH, priority 2007, dated 2012).
Numbered stars: 1 amine (or outer) side, 2 acyl side, 3 side chain; on linkers, the order of the positions; unused ones are H or OH. Square brackets hold non-standard residues; d marks the D form. Peptide text beside a SMILES is read from it. dAla(ψthiazole) = C[C@@H](N[*:1])c1nc(C(=O)[*:2])cs1; Trp(4-OMe) = COc1cccc2[nH]cc(C[C@H](N)C(=O)O)c12; Dha = C=C(N)C(=O)O; Sar = CNCC(=O)O

Experiments:
HUVEC = test: In vitro capillary-like tube structure formation on matrigel; format: cell-based, human
Text: The inventors then asked whether Argyrin A was also able to prevent the formation of capillary like tube structures formed by HUVEC on matrigel, an assay frequently used to test the ability of a compound to interfere with neovascularization. […] The addition of Argyrin A led to a 40% reduction in tube formation in this assay. Importantly transfection of siRNA against p27 protected endothelial cells against the inhibitory activity of Argyrin A. The effects exerted by Bortezomib in this assay were smaller and not rescued by loss of p27. In addition to tube length the inventors also quantitated the number of blood vessel like structures formed by HUVECS after treatment with Argyrin A or bortezomib (FIG. 4F).
Treatment with Argyrin A or bortezomib was started when these tumours reached a volume of 200 mm3. […] (n=8 Argyrin A, n=8 Bortezomib, n=6 PBS/EtOH) b) The pictures show the macroscopic appearance of a xenotransplant tumour after 10 days of treatment with Argyrin A. Note the large necrotic centre of the explanted tumour. c) After a single injection of Argyrin A (0.15 mg/kg bodyweight) or bortezomib (1.0 mg/kg bodyweight) tumours were explanted at the indicated time points and blood vessels in the tumour tissue were co-stained for CD31 and p27. […] Note the swelling of the endothelial cell (“E”) and the occlusion of the lumen (“L”) by erythrocytes after 90 minutes of Argyrin A treatment. The arrow marks the detachment of endothelial cells after 48 h of Argyrin A treatment. […] Tube length (f) and blood vessel like […] structures were determined using photographs of HUVEC cultures. The micrographs show representative examples of HUVEC cultures under the indicated conditions.
Primary microvascular endothelial cells (HMVEC) were isolated from human foreskin. The cells were kept at 37° C. and 10% CO2 in EGM-2 MV from Cambrex which includes the basal medium (EBM-2), FBS, hydrocortisone, hFGF-B, VEGF, R3-IGF, ascorbic acid, hEGF, gentamicin and amphotericin. The effect of argyrin A or bortezomib on in vitro angiogenesis was determined by matrigel capillary-like tube structure formation assay. To examine the effect of the different compounds on in vitro angiogenesis, HMVECs were seeded in 96-well culture plates precoated with Matrigel (BD Biosciences, #354248) and exposed to argyrin A or bortezomib. Enclosed networks of tube structures from three randomly chosen fields were scored under the microscope (Leica, Cambridge, United Kingdom). Pictures were taken with an Axio Vision 3.1 Zeiss camera and scored by determining tube length and the formation of closed vessel like structures.

[1] = system: mouse embryonic fibroblasts from p27^kip1 wildtype mice; test: Apoptosis (sub-G1 fraction) by flow cytometry in p27 wildtype MEF; format: cell-based; settings: for apoptosis in p27 wildtype MEF: sub G1 fraction
Text: Next the inventors tested whether the stabilization of p27 was indeed required for the apoptosis inducing function of Argyrin A or was merely a consequence of proteasome inhibition. For this the inventors treated immortalized mouse embryonic fibroblasts from p27^kip1 wildtype or knockout mice with Argyrin A or the proteasome inhibitor bortezomib and assayed cell cycle distribution and apoptosis by flow cytometry. […] These differences in sensitivity in response to Argyrin A treatment were not due to differences in the accumulation of other proteasomal substrates in p27 wildtype and knockout cells as p53 and p21 levels increased in both cell lines in response to Argyrin A (FIG. 6B). To extend this observation to human cancer cells the inventors reduced the levels of p27^kip1 in HeLa cells using p27^kip1 specific siRNA.
The results shown are the average numbers for six independent experiments. b+d) Wildtype (b) and p27 knockout (d) MEF were treated with Argyrin A or transfected with siRNAs specific for the β1, β2 or β5 subunit of the proteasome for 24 hours. The graphs show the remaining catalytic activity of the different proteasome subunits after Argyrin A or siRNA treatment compared to an untreated control (n=3). The western blots show the expression of the β1, β2 or β5 subunit of the proteasome in proliferating cells and after treatment with siRNAs for a representative experiment. c+e) Flow cytometric measurements of the number of apoptotic cells (sub-G1 fraction) after Argyrin A or siRNA treatment in wildtype (c) or p27 knockout (E) MEF. f) HeLa cells were treated with Argyrin A or siRNA against p27 or Argyrin A and siRNA against p27 for either 24 or 48 hours.
MTT assays were done as previously described (Sasse, F. et al. Argyrins, immunosuppressive cyclic peptides from myxobacteria. I. Production, isolation, physico-chemical and biological properties. J Antibiot (Tokyo) 55, 543-51 (2002)). TUNEL staining of tissue sections was performed on 10 micrometer sections which were deparafinised and treated as recommended by the manufacturer. (In Situ Cell Death Detection Kit, Fluorescein; ROCHE, Cat #11 684 795 910). Flow cytometric analysis of cultured cells was done using a Becton Dickinson fluorescence cytometer as previously described (Malek, N. P. et al. A mouse knock-in model exposes sequential proteolytic pathways that regulate p27^Kip1 in G1 and S phase. Nature 413, 323-7 (2001)). Analysis of the distribution of cells in the cell cycle and the sub-G1 fraction was done using Cell Quest software. A histone-associated-DNA-fragments ELISA was used to determine the number of apoptotic cells according to manufacturers instructions (Roche #11 774425001).

MCF7 cells = test: Gene expression signature (DNA microarray) of MCF7 cells; format: cell-based, human
Experimental: The inventors decided to compare the cellular responses of cells treated with Argyrin A or bortezomib directly. To this end the inventors determined the gene expression signature of MCF7 cells in response to Argyrin A or bortezomib and compared the resulting gene expression profiles. […] As shown in FIG. 2G the gene expression profiles of MCF7 cells which were treated with either bortezomib or Argyrin A differ dramatically. While bortezomib treatment led to changes in the expression of more than 10900 genes, only about 500 genes changed in response to Argyrin A treatment. Among these genes, 311 were affected by both bortezomib and Argyrin A, respectively.
Quality and integrity of the total RNA isolated was controlled by running all samples on an Agilent Technologies 2100 Bioanalyzer (Agilent Technologies; Waldbronn, Germany). For biotin-labelled target synthesis starting from 3 μg of total RNA, reactions were performed using standard protocols supplied by the manufacturer (Affymetrix; Santa Clara, Calif.). In each case 10 μg of labelled cRNA were hybridized to an identical lot of Affymetrix GeneChips HG-U133 2.0 for 16 hours at 45° C. After hybridisation the GeneChips were washed, stained with SA-PE and read using an Affymetrix GeneChip fluidic station and scanner.
Analysis of microarray data was performed using the Affymetrix GCOS 1.2 software. […]

[2] = Argyrin A 1 μM, bortezomib 10 nM

| Structure (SMILES) | number of blood vessel like structures (HUVEC; [2]) | reduction in tube formation (relative length of capillary tubes) (HUVEC; VEGF stimulation, Argyrin A 1 μM) | apoptosis, share of all cells, wildtype fibroblasts ([1]; after 24 hours) | apoptosis in p27 wildtype MEF [1] | number of genes with changed expression (MCF7 cells) | effect on tube formation compared with Argyrin A (HUVEC; bortezomib 10 nM) | apoptosis in p27 wildtype MEF ([1]; listed as Bortezomib) |
| --- | --- | --- | --- | --- | --- | --- | --- |
| C=C1NC(=O)[C@@H](C)NC(=O)CNC(=O)[C@H](Cc2c[nH]c3cccc(OC)c23)NC(=O)[C@H](Cc2c[nH]c3ccccc23)NC(=O)c2csc(n2)[C@@H](C)NC(=O)CN(C)C1=O [Argyrin A] (cyclo(W[Trp(4-OMe)]G[dA][Dha][Sar][dAla(ψthiazole)])) | significant reduction | 40% | 38% | induced apoptosis | about 500 genes |  |  |
| CC(C)C[C@H](NC(=O)[C@H](Cc1ccccc1)NC(=O)c1cnccn1)B(O)O [bortezomib, reference compound] | significant reduction |  |  | massive apoptosis | more than 10900 genes | smaller | induced apoptosis |
